Experimental data: patent publication US6620796B1, “Combinatorial library synthesis and pharmaceutically active compounds produced thereby” (Micrologix Biotech Inc., priority 1999, dated 2003)
Read-outs that look alike come from different tables or passages of the source.

How the values were obtained:
Assay type in all cases: cell-based
2.2.15 cells = assay: Toxicity analysis by neutral red dye uptake in 2.2.15 cells
Protocol: (§1) Cells for toxicity analyses were cultured and treated with four concentrations of the test compound. Uptake of neutral red dye was used to determine the relative level of toxicity 24 hours following the last treatment. The absorbance of internalized dye at 510 nm (A510 ) was used for the quantitative analysis. The percentage of dye uptake in the control (untreated) cell cultures was 100±3.

[1] = as above; conditions: human, neutral red dye uptake
Protocol: as §1

hepatits B virus (HBV) = assay: Inhibition of HBV: extracellular virion HBV DNA in 2.2.15 cell cultures; conditions: for HBV Virion DNA Levels at indicated Drug Concentration: untreated control 114±16 pg/ml
Protocol: Briefly, confluent 2.2.15 cell cultures infected with an HBV strain were treated with 9 consecutive daily doses of four concentrations of test compound. Extracellular virion HBV DNA levels were followed 24 hours after the last treatment. The level of HBV virion DNA in the 24 control (untreated) cultures in these experiments was 114±16 pg/ml culture medium.

[2] = HBV replication, 2.2.15 cells, 9 consecutive daily doses, virion DNA 24 hours after last treatment, read-out: EC50
[3] = HBV replication, 2.2.15 cells, 9 consecutive daily doses, virion DNA 24 hours after last treatment, read-out: EC90

Structure (SMILES): C=C(C)CC/C=C/COP(=O)(S)OC[C@H]1O[C@@H](n2cnc3c(N)ncnc32)C[C@@H]1O (stereo partly drawn) [Nucleoside W198-10]
- Neutral Red Dye Uptake at Indicated Drug Concentration (2.2.15 cells; 10 μM): 100 ± 1 % of control
- Neutral Red Dye Uptake at Indicated Drug Concentration (2.2.15 cells; 30 μM): 102 ± 2 % of control
- Neutral Red Dye Uptake at Indicated Drug Concentration (2.2.15 cells; 100 μM): 99 ± 1 % of control
- Neutral Red Dye Uptake at Indicated Drug Concentration (2.2.15 cells; 300 μM): 98 ± 1 % of control
- CC50 [1]: > 300 µM
- HBV Virion DNA Levels at indicated Drug Concentration (hepatits B virus (HBV); 0.01 μM, 2.2.15 cells): 127 ± 10 pg/ml culture
- HBV Virion DNA Levels at indicated Drug Concentration (hepatits B virus (HBV); 0.1 μM, 2.2.15 cells): 121 ± 10 pg/ml culture
- HBV Virion DNA Levels at indicated Drug Concentration (hepatits B virus (HBV); 1.0 μM, 2.2.15 cells): 139 ± 10 pg/ml culture
- HBV Virion DNA Levels at indicated Drug Concentration (hepatits B virus (HBV); 10 μM, 2.2.15 cells): 46 ± 2 pg/ml culture
- EC50 (hepatits B virus (HBV); 24 h): 7.7 ± 0.9 µM
- EC90 (hepatits B virus (HBV); 24 h): 24 ± 0.8 µM
- Selectivity Index (CC50/EC90) (hepatits B virus (HBV); HBV replication, 2.2.15 cells): >13

Structure (SMILES): C=C(C)[C@@H]1CC=C(COP(=O)(S)OC[C@H]2O[C@@H](n3cnc4c(N)ncnc43)C[C@@H]2O)CC1 (stereo partly drawn) [Nucleoside W198-24]
- Neutral Red Dye Uptake at Indicated Drug Concentration (2.2.15 cells; 10 μM): 100 ± 1 % of control
- Neutral Red Dye Uptake at Indicated Drug Concentration (2.2.15 cells; 30 μM): 102 ± 2 % of control
- Neutral Red Dye Uptake at Indicated Drug Concentration (2.2.15 cells; 100 μM): 103 ± 1 % of control
- Neutral Red Dye Uptake at Indicated Drug Concentration (2.2.15 cells; 300 μM): 102 ± 1 % of control
- CC50 [1]: > 300 µM
- HBV Virion DNA Levels at indicated Drug Concentration (hepatits B virus (HBV); 0.01 μM, 2.2.15 cells): 140 ± 15 pg/ml culture
- HBV Virion DNA Levels at indicated Drug Concentration (hepatits B virus (HBV); 0.1 μM, 2.2.15 cells): 133 ± 12 pg/ml culture
- HBV Virion DNA Levels at indicated Drug Concentration (hepatits B virus (HBV); 1.0 μM, 2.2.15 cells): 149 ± 25 pg/ml culture
- HBV Virion DNA Levels at indicated Drug Concentration (hepatits B virus (HBV); 10 μM, 2.2.15 cells): 62 ± 3 pg/ml culture
- Selectivity Index (CC50/EC90) (hepatits B virus (HBV); HBV replication, 2.2.15 cells): >7.7
- EC50 (hepatits B virus (HBV); [2]): 12 ± 1.2 µM
- EC90 (hepatits B virus (HBV); [3]): 39 ± 4.1 µM

Structure (SMILES): Nc1ncnc2c1ncn2[C@H]1C[C@H](O)[C@@H](COP(=O)(S)OCc2ccc3ccccc3c2)O1 (stereo partly drawn) [Nucleoside W198-22]
- Neutral Red Dye Uptake at Indicated Drug Concentration (2.2.15 cells; 10 μM): 99 ± 2 % of control
- Neutral Red Dye Uptake at Indicated Drug Concentration (2.2.15 cells; 30 μM): 101 ± 3 % of control
- Neutral Red Dye Uptake at Indicated Drug Concentration (2.2.15 cells; 100 μM): 102 ± 2 % of control
- Neutral Red Dye Uptake at Indicated Drug Concentration (2.2.15 cells; 300 μM): 103 ± 2 % of control
- CC50 [1]: > 300 µM
- HBV Virion DNA Levels at indicated Drug Concentration (hepatits B virus (HBV); 0.01 μM, 2.2.15 cells): 129 ± 13 pg/ml culture
- HBV Virion DNA Levels at indicated Drug Concentration (hepatits B virus (HBV); 0.1 μM, 2.2.15 cells): 122 ± 13 pg/ml culture
- HBV Virion DNA Levels at indicated Drug Concentration (hepatits B virus (HBV); 1.0 μM, 2.2.15 cells): 152 ± 11 pg/ml culture
- HBV Virion DNA Levels at indicated Drug Concentration (hepatits B virus (HBV); 10 μM, 2.2.15 cells): 59 ± 2 pg/ml culture
- Selectivity Index (CC50/EC90) (hepatits B virus (HBV); HBV replication, 2.2.15 cells): >9.4
- EC50 (hepatits B virus (HBV); [2]): 10 ± 1.1 µM
- EC90 (hepatits B virus (HBV); [3]): 32 ± 3.2 µM

Structure (SMILES): C/C=C(/COP(=O)(S)OC[C@H]1O[C@@H](n2cnc3c(N)ncnc32)C[C@@H]1O)c1ccccc1 (stereo partly drawn) [Nucleoside W198-21]
- Neutral Red Dye Uptake at Indicated Drug Concentration (2.2.15 cells; 10 μM): 99 ± 3 % of control
- Neutral Red Dye Uptake at Indicated Drug Concentration (2.2.15 cells; 30 μM): 99 ± 1 % of control
- Neutral Red Dye Uptake at Indicated Drug Concentration (2.2.15 cells; 100 μM): 100 ± 1 % of control
- Neutral Red Dye Uptake at Indicated Drug Concentration (2.2.15 cells; 300 μM): 100 ± 2 % of control
- CC50 [1]: > 300 µM
- HBV Virion DNA Levels at indicated Drug Concentration (hepatits B virus (HBV); 0.01 μM, 2.2.15 cells): 137 ± 14 pg/ml culture
- HBV Virion DNA Levels at indicated Drug Concentration (hepatits B virus (HBV); 0.1 μM, 2.2.15 cells): 121 ± 13 pg/ml culture
- HBV Virion DNA Levels at indicated Drug Concentration (hepatits B virus (HBV); 1.0 μM, 2.2.15 cells): 117 ± 12 pg/ml culture
- HBV Virion DNA Levels at indicated Drug Concentration (hepatits B virus (HBV); 10 μM, 2.2.15 cells): 35 ± 4 pg/ml culture
- Selectivity Index (CC50/EC90) (hepatits B virus (HBV); HBV replication, 2.2.15 cells): >16
- EC50 (hepatits B virus (HBV); [2]): 5.3 ± 0.6 µM
- EC90 (hepatits B virus (HBV); [3]): 19 ± 2.1 µM
